Results from ChEMBL document CHEMBL5576159, “Discovery and structure-activity relationship study of novel isoxazole-based small molecules targeting Zika virus infections” (RSC Med Chem, 2024).

Assays:
[1] = Cytotoxicity against African green monkey Vero cells infected with ZIKV MR766 incubated for 48 hrs by immunofluorescence analysis; settings: chlorocebus sabaeus, Vero cells infected with ZIKV PRVABC59
[2] = biological target: Cytochrome P450 2D6 (Homo sapiens, UniProt P10635); experiment: Inhibition of CYP2D6 in human liver microsomes using dextromethorphan as substrate preincubated for 5 mins followed by substrate and NADPH addition and measured after 20 mins by LC-MS/MS analysis
Cytochrome P450 2D6, sequence (P10635 whole entry): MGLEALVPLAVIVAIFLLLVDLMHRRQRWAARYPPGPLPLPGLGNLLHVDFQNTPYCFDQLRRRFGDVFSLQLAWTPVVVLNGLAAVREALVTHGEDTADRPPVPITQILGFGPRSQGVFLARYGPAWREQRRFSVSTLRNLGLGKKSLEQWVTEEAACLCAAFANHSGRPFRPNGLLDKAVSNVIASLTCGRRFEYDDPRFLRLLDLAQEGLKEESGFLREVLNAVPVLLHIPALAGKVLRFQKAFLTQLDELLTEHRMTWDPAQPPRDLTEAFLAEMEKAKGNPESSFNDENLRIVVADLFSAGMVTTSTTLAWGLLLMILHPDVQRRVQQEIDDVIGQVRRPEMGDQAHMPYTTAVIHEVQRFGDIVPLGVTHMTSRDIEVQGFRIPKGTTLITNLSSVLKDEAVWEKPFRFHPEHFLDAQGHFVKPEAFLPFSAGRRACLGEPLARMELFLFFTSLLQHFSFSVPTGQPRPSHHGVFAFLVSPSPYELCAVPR

[3] = test system: Zika virus; experiment: Antiviral activity against ZIKV MR766 infected in Vero cells measured after 48 hrs by immunofluorescence analysis
[4] = Plasma protein binding in human at 5 uM incubated for 4 hrs under shaking condition by LC-MS/MS analysis
[5] = biological target: hERG (Homo sapiens, UniProt Q12809); experiment: Inhibition of hERG at 10 uM incubated for 2 hrs relative to control
hERG, sequence (Q12809 whole entry): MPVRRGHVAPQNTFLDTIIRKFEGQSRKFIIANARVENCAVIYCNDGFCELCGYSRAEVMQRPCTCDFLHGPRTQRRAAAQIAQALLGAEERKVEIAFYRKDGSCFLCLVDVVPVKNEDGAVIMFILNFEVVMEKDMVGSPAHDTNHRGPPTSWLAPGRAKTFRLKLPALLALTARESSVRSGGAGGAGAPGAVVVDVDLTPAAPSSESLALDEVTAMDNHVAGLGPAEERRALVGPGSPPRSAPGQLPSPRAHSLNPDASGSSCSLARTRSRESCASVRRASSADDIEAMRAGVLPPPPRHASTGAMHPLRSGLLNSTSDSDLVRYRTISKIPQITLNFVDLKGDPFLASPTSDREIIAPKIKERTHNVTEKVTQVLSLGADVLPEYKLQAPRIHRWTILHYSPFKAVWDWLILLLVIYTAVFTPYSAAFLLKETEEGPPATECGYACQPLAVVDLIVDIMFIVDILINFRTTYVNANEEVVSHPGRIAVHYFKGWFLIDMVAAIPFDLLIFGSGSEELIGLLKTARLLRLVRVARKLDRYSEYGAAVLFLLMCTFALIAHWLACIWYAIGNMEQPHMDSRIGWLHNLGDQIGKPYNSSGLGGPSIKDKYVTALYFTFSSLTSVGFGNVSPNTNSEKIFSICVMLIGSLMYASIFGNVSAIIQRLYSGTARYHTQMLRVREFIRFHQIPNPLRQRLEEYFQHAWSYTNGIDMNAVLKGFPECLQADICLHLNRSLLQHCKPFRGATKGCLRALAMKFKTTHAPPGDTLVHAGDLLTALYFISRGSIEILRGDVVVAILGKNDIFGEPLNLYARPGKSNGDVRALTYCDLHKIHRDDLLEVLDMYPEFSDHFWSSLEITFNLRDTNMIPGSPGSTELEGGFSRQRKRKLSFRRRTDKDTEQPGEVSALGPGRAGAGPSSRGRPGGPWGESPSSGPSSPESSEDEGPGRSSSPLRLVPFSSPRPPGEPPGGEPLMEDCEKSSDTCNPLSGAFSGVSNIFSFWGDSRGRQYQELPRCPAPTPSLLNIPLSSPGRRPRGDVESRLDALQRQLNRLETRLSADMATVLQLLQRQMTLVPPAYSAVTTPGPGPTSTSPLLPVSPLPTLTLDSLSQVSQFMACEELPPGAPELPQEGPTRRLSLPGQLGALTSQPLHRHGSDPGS

[6] = Plasma protein binding in mouse at 5 uM incubated for 4 hrs under shaking condition by LC-MS/MS analysis
[7] = Stability in rat liver microsomes assessed as compound remaining at 1 uM incubated for 30 mins by LC-MS/MS analysis
[8] = Stability in human liver microsomes assessed as compound remaining at 1 uM incubated for 30 mins by LC-MS/MS analysis
[9] = Stability in mouse liver microsomes assessed as compound remaining at 1 uM incubated for 30 mins by LC-MS/MS analysis
[10] = test system: Zika virus; experiment: Antiviral activity against ZIKV BR infected in cervical cells; settings: Cervical cell
[11] = test system: Zika virus; experiment: Antiviral activity against ZIKV infected in Vero E6 cells assessed as inhibition of viral replication; settings: Vero C1008
[12] = Cytotoxicity against African green monkey Vero E6 cells; format: toxicity, cell-based, Vero C1008; settings: chlorocebus sabaeus
[13] = Selectivity index, ratio of CC50 for African green monkey Vero cells infected with ZIKV MR766 to EC50 for ZIKV MR766 infected in Vero cells

| SMILES | CC50 at 48 h [1] | EC50 [3] | also measured |
| --- | --- | --- | --- |
| Fc1ccc(-c2cc(-c3ccc(NCc4cccnc4)cc3)no2)cc1 | > 100 µM |  |  |
| c1cncc(CNc2ccc(-c3cc(-c4cncnc4)on3)cc2)c1 | > 100 µM |  | IC50 [2]: 3.5 µM |
| Fc1cccc(-c2cc(-c3ccc(NCc4cccnc4)cc3)no2)c1 |  | 3.3 µM |  |
| FC(F)(F)c1ccc(-c2cc(-c3ccc(NCc4cccnc4)cc3)no2)cc1 | > 100 µM |  | fraction unbound at 4 h, 5 µM [4]: 0.0047; inhibition at 2 h, 10 µM [5]: 5.37%; fraction unbound at 4 h, 5 µM [6]: 0.003; remaining at 0.5 h, 1 µM [7]: 51.7%; remaining at 0.5 h, 1 µM [8]: 71.5%; IC50 [2]: > 99 µM; remaining at 0.5 h, 1 µM [9]: 79.6% |
| FC(F)(F)Oc1ccc(-c2cc(-c3ccc(NCc4cccnc4)cc3)no2)nc1 | > 100 µM |  |  |
| O=S(=O)(NCCCCNc1ccnc2cc(Cl)ccc12)c1ccc(Cl)cc1 |  |  | EC50 [10]: 3.2 µM |
| CCn1c2ccccc2c2cc(NC(=O)Nc3ccc(N)cc3C)ccc21 |  |  | EC50 [11]: 1.67 µM; CC50 [12]: > 12.5 µM |
| COc1ccccc1-c1cc(-c2ccc(NCc3cccnc3)cc2)no1 | > 100 µM |  | IC50 [2]: 27.1 µM |
| c1ccc(-c2nnc(-c3ccc(NCc4cccnc4)cc3)o2)cc1 | > 100 µM | > 100 µM |  |
| c1ccc(-c2noc(-c3ccc(NCc4cccnc4)cc3)n2)cc1 | 61.4 µM | 5.3 µM | selectivity ratio [13]: 11.6 |
| Cn1cc(-c2ccc(NCc3cccnc3)cc2)nc1-c1ccccc1 | > 100 µM | > 100 µM |  |
| FC(F)(F)Oc1ccccc1-c1cc(-c2ccc(NCc3cccnc3)cc2)no1 |  | 44.5 µM |  |
| FC(F)(F)c1cc(-c2cc(-c3ccc(NCc4cccnc4)cc3)no2)ccn1 | > 100 µM |  |  |
| c1ccc(-c2nc(-c3ccc(NCc4cccnc4)cc3)c[nH]2)cc1 | 94.1 µM | 36.8 µM | selectivity ratio [13]: 2.6 |
| N#Cc1ccc(-c2cc(-c3ccc(NCc4cccnc4)cc3)no2)cc1 | > 100 µM |  | IC50 [2]: > 99 µM |
| c1ccc(-c2cnc(-c3ccc(NCc4cccnc4)cc3)o2)cc1 | 12.9 µM | 5.1 µM | selectivity ratio [13]: 2.5 |
